The text below walks through data of patent publication US9096560B2, “5-heterocyclylalkyl-3-hydroxy-2-phenylcyclopent-2-enones as herbicides” (Syngenta Limited, priority 2008, dated 2015).

Holding throughout (assay type): in vivo
Experiment [1] relates to Lolium perenne (LOLPE). The experiment in a line: Example B pre-emergence herbicidal test, LOLPE. The following applies: Lolium perenne, 312 h, rate 250 g/ha, evaluated after 13 days, 100=total damage to plant, 0=no damage to plant. In outline:
(§1)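 Pots sown, sprayed day 1 pre-emergence; spray: aqueous dilution of formulation in acetone/water 50:50 + 0.5% Tween 20. Glasshouse 24/16° C, 14 h light, 65% RH, watering twice daily. Visual damage rating at 13 d, 0–100 scale.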

Experiment [2] relates to Alopecurus myosuroides (ALOMY). The experiment in a line: Example B pre-emergence herbicidal test, ALOMY. The settings on record: Alopecurus myosuroides, 312 h, rate 250 g/ha, evaluated after 13 days, 100=total damage to plant, 0=no damage to plant. Summed up:
as §1

Experiment [3] has as its system Alopecurus myosuroides (ALOMY). The experiment is described as follows: Example B post-emergence herbicidal test, ALOMY. The settings on record: Alopecurus myosuroides, 312 h, rate 250 g/ha, evaluated after 13 days, scale 0-100, read-out: Post-emergence activity ALOMY (100=total damage to plant; 0=no damage to plant). Summed up: (§2)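 Plants grown from seed in standard soil for 8 days in a glasshouse (24/16 °C day/night, 14 h light, 65% humidity), then sprayed with an aqueous solution from the active ingredient formulated in acetone/water (50:50) with 0.5% Tween 20. Damage scored after 13 days, 0 (none) to 100 (total).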

The test system of experiment [4] is Echinochloa crus-galli (ECHCG). The experiment in a line: Example B pre-emergence herbicidal test, ECHCG. The settings on record: Echinochloa crus-galli, 312 h, rate 250 g/ha, evaluated after 13 days, 100=total damage to plant, 0=no damage to plant. In outline: as §1
Experiment [5] concerns Avena fatua (AVEFA). The experiment is described as follows: Example B pre-emergence herbicidal test, AVEFA. The settings on record: Avena fatua, 312 h, rate 250 g/ha, evaluated after 13 days, 100=total damage to plant, 0=no damage to plant. Summed up: as §1
In experiment [6] the test system is Avena fatua (AVEFA). The experiment is described as follows: Example B post-emergence herbicidal test, AVEFA. The following applies: Avena fatua, 312 h, rate 250 g/ha, evaluated after 13 days, scale 0-100, read-out: Post-emergence activity AVEFA (100=total damage to plant; 0=no damage to plant). Summed up: as §2
Experiment [7] relates to Echinochloa crus-galli (ECHCG). The experiment is described as follows: Example B post-emergence herbicidal test, ECHCG. The following applies: Echinochloa crus-galli, 312 h, rate 250 g/ha, evaluated after 13 days, scale 0-100, read-out: Post-emergence activity ECHCG (100=total damage to plant; 0=no damage to plant). Summed up: as §2
For experiment [8], the system named is Lolium perenne (LOLPE). The experiment in a line: Example B post-emergence herbicidal test, LOLPE. The settings on record: Lolium perenne, 312 h, rate 250 g/ha, evaluated after 13 days, scale 0-100, read-out: Post-emergence activity LOLPE (100=total damage to plant; 0=no damage to plant). In outline: as §2

With `Cc1cc(-c2ccc(C(F)(F)F)cc2)cc(C)c1C1C(=O)CC(CC2CCOC2)C1=O` (stereo not shown) [Compound T157], the pest or weed control at 250 g/ha in the experiment on Lolium perenne (LOLPE) [1] turned out to be 10%; in experiment [2], 10%; in experiment [3], 30%; in experiment [4], 40%; with Avena fatua (AVEFA) [5] it was 0%; in the experiment with Avena fatua (AVEFA) [6], 50%. The figures for the pest or weed control at 250 g/ha (in experiment [7]; with Lolium perenne (LOLPE) [8]) were 60% and 30%, respectively.

For the compound `Cc1cc(C)c(C2=C(OC(=O)C(C)C)CC(CC3CCN(C(=O)C(C)C)C3)C2=O)c(C)c1` (stereo not shown) [Compound P58], the pest or weed control at 250 g/ha with Lolium perenne (LOLPE) [1] came to 80%; in experiment [2], 70%; in experiment [3], 90%; in experiment [4], 80%; with Avena fatua (AVEFA) [5], 70%; with Avena fatua (AVEFA) [6], 90%. Besides, the pest or weed control at 250 g/ha came to 70% in experiment [7] and 90% with Lolium perenne (LOLPE) [8].

Take `CCS(=O)(=O)OC1=C(c2c(C)cc(C)cc2C)C(=O)C(CC2CCOC2)C1` (stereo not shown) [Compound P27]: the pest or weed control at 250 g/ha in the experiment with Lolium perenne (LOLPE) [1] is 100%; in experiment [2], 100%; in experiment [3] it was 80%; in experiment [4], 80%; in the experiment on Avena fatua (AVEFA) [5], 80%; in the experiment on Avena fatua (AVEFA) [6] it was 80%. The pest or weed control at 250 g/ha in experiment [7] was found to be 90%; with Lolium perenne (LOLPE) [8], 100%.

For `Cc1cc(C)c(C2C(=O)CC(CC3CCN(C(=O)N4CCOCC4)CC3)C2=O)c(C)c1` (stereo not shown) [Compound T100], the pest or weed control at 250 g/ha with Lolium perenne (LOLPE) [1] was determined as 90%; in experiment [2] it was 60%; in experiment [3], 90%; in experiment [4], 70%; with Avena fatua (AVEFA) [5], 60%; in the experiment with Avena fatua (AVEFA) [6], 90%. Further, the figures for the pest or weed control at 250 g/ha (in experiment [7]; in the experiment with Lolium perenne (LOLPE) [8]) were 60% and 80%, respectively.

As to `Cc1cc(C)c(C2=C(OC(=O)C3CC3)CC(CC3CCOC3)C2=O)c(C)c1` (stereo not shown) [Compound P14], the pest or weed control at 250 g/ha in the experiment on Lolium perenne (LOLPE) [1] amounted to 100%; in experiment [2], 100%; in experiment [3], 90%; in experiment [4], 100%; in the experiment with Avena fatua (AVEFA) [5], 80%; with Avena fatua (AVEFA) [6], 90%. In addition, the pest or weed control at 250 g/ha turned out to be 90% in experiment [7] and 100% in the experiment with Lolium perenne (LOLPE) [8].

As for `C=CCOC(=O)OC1=C(c2c(C)cc(C)cc2C)C(=O)C(CC2CCOC2)C1` (stereo not shown) [Compound P25], the pest or weed control at 250 g/ha with Lolium perenne (LOLPE) [1] came out at 90%; in experiment [2] it was 100%; in experiment [3], 90%; in experiment [4], 90%; in the experiment with Avena fatua (AVEFA) [5] it was 80%; in the experiment on Avena fatua (AVEFA) [6], 90%. Also, the pest or weed control at 250 g/ha (in experiment [7]; in the experiment with Lolium perenne (LOLPE) [8]) was 100% each time.

For the compound `Cc1cc(C)c(C2C(=O)CC(CC3CCN(C(=O)C(C)C)C3)C2=O)c(C)c1` (stereo not shown) [Compound T142], the pest or weed control at 250 g/ha with Lolium perenne (LOLPE) [1] turned out to be 70%; in experiment [2], 90%; in experiment [3] it was 90%; in experiment [4] it was 90%; in the experiment with Avena fatua (AVEFA) [5], 80%; in the experiment on Avena fatua (AVEFA) [6], 90%. Further, the pest or weed control at 250 g/ha came to 60% in experiment [7] and 70% in the experiment on Lolium perenne (LOLPE) [8].

For `Cc1cc(C)c(C2C(=O)CC(CC3CCN(C(=O)c4cccc(Cl)c4)CC3)C2=O)c(C)c1` (stereo not shown) [Compound T73], the pest or weed control at 250 g/ha in the experiment on Lolium perenne (LOLPE) [1] amounted to 80%; in experiment [2], 40%; in experiment [3], 90%; in experiment [4], 80%; with Avena fatua (AVEFA) [5], 80%; in the experiment on Avena fatua (AVEFA) [6], 100%. Besides, the pest or weed control at 250 g/ha worked out at 90% in experiment [7] and 80% in the experiment on Lolium perenne (LOLPE) [8].

In the case of `Cc1cc(C)c(C2C(=O)CC(CC3CCN(S(=O)(=O)c4ccccc4)CC3)C2=O)c(C)c1` (stereo not shown) [Compound T91], the pest or weed control at 250 g/ha in the experiment on Lolium perenne (LOLPE) [1] turned out to be 70%; in experiment [2] it was 20%; in experiment [3], 40%; in experiment [4], 60%; in the experiment with Avena fatua (AVEFA) [5] it was 40%; in the experiment with Avena fatua (AVEFA) [6] it was 90%. Moreover, the pest or weed control at 250 g/ha (in experiment [7]; with Lolium perenne (LOLPE) [8]) was 50% throughout.

As to `Cc1cc(C)c(C2C(=O)CC(C(O)C3CCOCC3)C2=O)c(C)c1` (stereo not shown) [Compound T3], the pest or weed control at 250 g/ha in the experiment on Lolium perenne (LOLPE) [1] was 60%; in experiment [2] it was 50%; in experiment [3], 40%; in experiment [4], 20%; in the experiment with Avena fatua (AVEFA) [5], 50%; in the experiment on Avena fatua (AVEFA) [6], 70%. The pest or weed control at 250 g/ha (in experiment [7]; in the experiment on Lolium perenne (LOLPE) [8]) was 70% in each case.

`Cc1cc(C)c(C2=C(OC(=O)Oc3ccccc3)CC(CC3CCOC3)C2=O)c(C)c1` (stereo not shown) [Compound P26]: the pest or weed control at 250 g/ha was determined as 100% with Lolium perenne (LOLPE) [1]; 100% in experiment [2]; 100% in experiment [3]; 90% in experiment [4]; 80% with Avena fatua (AVEFA) [5]; 90% in the experiment on Avena fatua (AVEFA) [6]. The pest or weed control at 250 g/ha (in experiment [7]; in the experiment with Lolium perenne (LOLPE) [8]) was 100% each time.

Turning to `Cc1cc(C)c(C2=C(OC(=O)C(C)(C)CCl)CC(CC3CCN(C(=O)C(C)(C)CCl)C3)C2=O)c(C)c1` (stereo not shown) [Compound P60], the pest or weed control at 250 g/ha is 80% with Lolium perenne (LOLPE) [1]; 30% in experiment [2]; 80% in experiment [3]; 50% in experiment [4]; 0% in the experiment on Avena fatua (AVEFA) [5]; 80% in the experiment with Avena fatua (AVEFA) [6]. The pest or weed control at 250 g/ha was determined as 40% in experiment [7] and 70% with Lolium perenne (LOLPE) [8].

For `CCCCC(=O)N1CCC(CC2CC(=O)C(c3c(C)cc(C)cc3C)C2=O)CC1` (stereo not shown) [Compound T85], the pest or weed control at 250 g/ha turned out to be 60% with Lolium perenne (LOLPE) [1]; 60% in experiment [2]; 90% in experiment [3]; 30% in experiment [4]; 20% in the experiment on Avena fatua (AVEFA) [5]; 90% with Avena fatua (AVEFA) [6]. Besides, the figures for the pest or weed control at 250 g/ha (in experiment [7]; in the experiment on Lolium perenne (LOLPE) [8]) were 80% and 90%, respectively.

Consider `Cc1cc(C)c(C2C(=O)CC(CC3CCN(C(=O)c4cc(C)nn4C)CC3)C2=O)c(C)c1` (stereo not shown) [Compound T121], for which the pest or weed control at 250 g/ha in the experiment on Lolium perenne (LOLPE) [1] came to 80%; in experiment [2] it was 30%; in experiment [3] it was 80%; in experiment [4], 90%; with Avena fatua (AVEFA) [5] it was 60%; in the experiment with Avena fatua (AVEFA) [6], 100%. For the same compound, the pest or weed control at 250 g/ha in experiment [7] came to 80%; in the experiment with Lolium perenne (LOLPE) [8] it was 90%.

With `Cc1cc(C)c(C2C(=O)CC(CC3CCN(C(=O)c4cc(F)c(Cl)nc4Cl)CC3)C2=O)c(C)c1` (stereo not shown) [Compound T106], the pest or weed control at 250 g/ha in the experiment on Lolium perenne (LOLPE) [1] was 20%; in experiment [2] it was 20%; in experiment [3], 40%; in experiment [4] it was 20%; in the experiment with Avena fatua (AVEFA) [5], 30%; with Avena fatua (AVEFA) [6], 10%. Further, the pest or weed control at 250 g/ha (in experiment [7]; with Lolium perenne (LOLPE) [8]) was 30% throughout.

`Cc1cc(-c2ccccc2)cc(C)c1C1C(=O)CC(CC2CCOC2)C1=O` (stereo not shown) [Compound T159]: the pest or weed control at 250 g/ha in the experiment on Lolium perenne (LOLPE) [1] came out at 70%; in experiment [2] it was 50%; in experiment [3], 90%; in experiment [4], 100%; in the experiment with Avena fatua (AVEFA) [5], 30%; in the experiment on Avena fatua (AVEFA) [6], 90%. The pest or weed control at 250 g/ha (in experiment [7]; in the experiment on Lolium perenne (LOLPE) [8]) was 100% throughout.

In the case of `Cc1cc(C)c(C2C(=O)CC(CC3CCN(C(=O)C(F)(F)F)CC3)C2=O)c(C)c1` (stereo not shown) [Compound T163], the pest or weed control at 250 g/ha in the experiment on Lolium perenne (LOLPE) [1] is 80%; in experiment [2], 50%; in experiment [3], 90%; in experiment [4], 60%; in the experiment with Avena fatua (AVEFA) [5] it was 60%; in the experiment with Avena fatua (AVEFA) [6], 100%. Also, the values for the pest or weed control at 250 g/ha (in experiment [7]; with Lolium perenne (LOLPE) [8]) were 90% and 100%, respectively.
